These results are taken from patent US8633005B2, “Isocyclomaltooligosaccharide(s), isocyclomaltooligosaccharide-forming enzyme, their preparation and uses” (Hayashibara Co., Ltd., priority 2004, dated 2014).

The subject of data set [1] is ICM-forming enzyme. Put plainly: Effects of metal ions on the enzyme activity. Format: biochemical, Bacillus circulans AM7.
For data set [2], the system named is ICM-forming enzyme. Kind of data set: Action on various saccharides (substrate specificity, TLC). It is filed as biochemical, Bacillus circulans AM7. Conditions: substrate 2% (w/v), one unit/g-substrate enzyme, 40° C., pH 6.0, 24 hours. Details: key: −: Not changed; +: Spot of substrate is slightly decreased and the formation of ICM are detected; ++: Spot of substrate is markedly decreased and the formation of ICM are detected; +++: Spot of substrate is virtually disappeared and the formation of ICM are detected. Here is the method:
Substrate specificity of ICM-forming enzyme was investigated using various saccharides as substrates. Substrate solutions were prepared by dissolving maltose, maltotriose, maltotetraose, maltopentaose, maltohexaose, maltoheptaose, neotrehalose, trehalose, kojibiose, nigerose, isomaltose, isomaltotriose, panose, isopanose, maltitol, maltotriitol, α-, β-, or γ-cyclodextrin, amylose, soluble starch, glycogen, pullulan or dextran in water. Each substrate solution was admixed with acetate buffer (pH 6.0) and CaCl2 to give final concentrations of 20 mM and 1 mM, respectively. […] Substrate concentration was set to 2% (w/v) and followed by the enzyme reaction at 40° C. and pH 6.0 for 24 hours. To examine the saccharides in each mixture before and after the reaction, saccharides were separated by silica gel thin-layer chromatography (hereinafter, simply abbreviated as “TLC”) using “KIESELGEL 60”, a TLC aluminum plate (10×20 cm) and a solvent (n-butanol/pyridine/water, volume ratio of 6:4:1) and two-times ascending method. The separated saccharides on the plate were detected by visualizing the spots with sulfate-methanol method. By the above TLC analyses, the enzymatic action and the degree of the reaction of ICM-forming enzyme on each substrate were confirmed.

Data set [3] can be described thus: Reducing power by the Somogyi-Nelson method. It is filed as physicochemical. An excerpt: It was concluded that Saccharides I and II were substantially non-reducing saccharides.
The nature of data set [4]: Optimum temperature and pH for the enzyme reaction. Format: biochemical, Bacillus circulans AM7. Conditions: for Optimum pH: 30° C. for 30 min; for Optimum temperature: pH 6.0 for 30 min. Here is the method:
The enzyme activity of ICM-forming enzyme of the present invention can be assayed as follows: A substrate solution is prepared by dissolving amylose in 50 mM acetate buffer (pH 6.0) containing 1 mM CaCl2 to give a concentration of 1.25% (w/v). 0.2 ml of an enzyme solution is added to 0.8 ml of the substrate solution, and the mixture solution is incubated at 30° C. for 30 mm. After stopping the reaction by heating at about 100° C. for 10 min, the reaction mixture is admixed with 4,000 units/g-solid of α-glucosidase and 250 units/g-solid of glucoamylase to hydrolyze the remaining soluble starch and concomitant oligosaccharides, and followed by the enzyme treatment at 50° C. for one hour. The amount of ICG5 contained in the treated mixture is determined by HPLC described later in Experiment 1. One unit activity of ICM-forming enzyme is defined as the amount of enzyme which forms one μmole of ICG5 per minute under the above conditions.
The results are in FIG. 9 (Optimum temperature) and FIG. 10 (Optimum pH), respectively.

The mark [5] stands for this setting: enzyme purified from Bacillus circulans AM7.
The mark [6] stands for this setting: recombinant enzyme from transformant ETAM1.

Where two headings read alike, the source gives them in different places.

As for `[Cl][Fe][Cl]` [FeCl2], the Relative activity in the data set with ICM-forming enzyme [1] (1 mM metal salt, None = 100) is given as 94%. Consider `OC[C@H]1O[C@@H](O[C@H]2O[C@H](CO)[C@@H](O)[C@H](O)[C@H]2O)[C@H](O)[C@@H](O)[C@@H]1O` [Neotrehalose, neotrehalose], for which the Action result in the data set with ICM-forming enzyme [2] is “−”. On to `[Cl][Hg][Cl]` [HgCl2], for which, in the data set with ICM-forming enzyme [1] (1 mM metal salt), the “Inhibition of ICM-forming enzyme activity” value (from here on “Inhibition”) came to 45%. Moreover, in the data set with ICM-forming enzyme [1] (1 mM metal salt, None = 100), the Relative activity was found to be 55%. As to `OC[C@H]1O[C@H](O[C@H]2[C@H](O)[C@@H](O)[C@@H](O[C@H]3[C@H](O)[C@@H](O)[C@@H](O[C@H]4[C@H](O)[C@@H](O)C(O)O[C@@H]4CO)O[C@@H]3CO)O[C@@H]2CO)[C@H](O)[C@@H](O)[C@@H]1O` (stereo partly drawn) [Maltotetraose, maltotetraose], in the data set with ICM-forming enzyme [2], the Action entry is recorded as “++”. Still for that read-out and setting: then `OC[C@H]1O[C@H](O[C@H]2[C@H](O)[C@@H](O)[C@@H](OC[C@H]3OC(O)[C@H](O)[C@@H](O)[C@@H]3O)O[C@@H]2CO)[C@H](O)[C@@H](O)[C@@H]1O` (stereo partly drawn) [Isopanose, isopanose], with “−”; and `OC[C@H]1O[C@H](OC[C@H]2O[C@H](O[C@H]3[C@H](O)[C@@H](O)C(O)O[C@@H]3CO)[C@H](O)[C@@H](O)[C@@H]2O)[C@H](O)[C@@H](O)[C@@H]1O` (stereo partly drawn) [Panose, panose], with “−”. Still for that read-out and setting: then `OC[C@@H](O)[C@@H](O[C@H]1O[C@H](CO)[C@@H](O)[C@H](O)[C@H]1O)[C@H](O)[C@@H](O)CO` [Maltitol, maltitol], with “−”. As for `[Cl-].[Cl-].[Co+2]` [CoCl2], in the data set with ICM-forming enzyme [1], the Relative activity turned out to be 100%.

For the molecule amylose, in the data set with ICM-forming enzyme [2], the Action result is recorded as “+++”.

On to `OC[C@H]1O[C@H](OC[C@H]2O[C@H](OC[C@H]3OC(O)[C@H](O)[C@@H](O)[C@@H]3O)[C@H](O)[C@@H](O)[C@@H]2O)[C@H](O)[C@@H](O)[C@@H]1O` (stereo partly drawn) [Isomaltotriose, isomaltotriose], for which the Action result in the data set with ICM-forming enzyme [2] was “−”.

Turning to `[Cl][Fe]([Cl])[Cl]` [FeCl3], the “Inhibition” value in the data set with ICM-forming enzyme [1] (1 mM metal salt) is listed as “about 20%”. For the same molecule, the Relative activity in the data set with ICM-forming enzyme [1] (1 mM metal salt, None = 100) is on record as 82%.

With `[Ba+2].[Cl-].[Cl-]` [BaCl2], the Relative activity with ICM-forming enzyme [1] (1 mM metal salt, None = 100) came out at 99%. maltohexaose: the Action result in the data set on ICM-forming enzyme [2] is recorded as “+++”. On the same count and under the same terms, the value for maltoheptaose was “+++”. On to `[Cl][Ni][Cl]` [NiCl2], for which the Relative activity in the data set on ICM-forming enzyme [1] (1 mM metal salt, None = 100) was 105%. For pullulan, in the data set on ICM-forming enzyme [2], the Action entry is recorded as “−”. On to `[Ca+2].[Cl-].[Cl-]` [CaCl2], for which the Relative activity in the data set on ICM-forming enzyme [1] (1 mM metal salt, None = 100) is given as 105%. As to `OC[C@@H](O)[C@@H](O[C@H]1O[C@H](CO)[C@@H](O[C@H]2O[C@H](CO)[C@@H](O)[C@H](O)[C@H]2O)[C@H](O)[C@H]1O)[C@H](O)[C@@H](O)CO` [Maltotriitol, maltotriitol], the Action entry in the data set with ICM-forming enzyme [2] is reported as “−”. For maltotriose, in the data set with ICM-forming enzyme [2], the Action result is reported as “+”. In the case of `[Cl][Pb][Cl]` [PbCl2], the Relative activity in the data set with ICM-forming enzyme [1] (1 mM metal salt, None = 100) stood at 130%.

For maltopentaose, in the data set on ICM-forming enzyme [2], the Action entry is “+++”. In the case of `OCC1OC2OC3C(CO)OC(OC4C(CO)OC(OC5C(CO)OC(OC6C(CO)OC(OCC7OC(OC1C(O)C2O)C(O)C(O)C7O)C(O)C6O)C(O)C5O)C(O)C4O)C(O)C3O` [ICG6, cyclo{→6)-α-D-glucopyranosyl-(1→4)-α-D-glucopyranosyl-(1→4)-α-D-glucopyranosyl-(1→4)-α-D-glucopyranosyl-(1→4)-α-D-glucopyranosyl-(1→4)-α-D-glucopyranosyl-(1→}], the Reducing power entry in data set [3] was “less than the measurable limit”.

In the case of `[Cl][Cu][Cl]` [CuCl2], the “Inhibition” value in the data set with ICM-forming enzyme [1] (1 mM metal salt) is listed as “about 20%”. In the data set with ICM-forming enzyme [1] (1 mM metal salt, None = 100), the Relative activity is 79%. glycogen: the Action entry in the data set with ICM-forming enzyme [2] is “+”. Consider `O=C(O)CN(CCN(CC(=O)O)CC(=O)O)CC(=O)O` [EDTA], for which the “Inhibition” value in the data set on ICM-forming enzyme [1] (1 mM metal salt) was “inhibited slightly”. Moreover, the Relative activity with ICM-forming enzyme [1] (1 mM metal salt, None = 100) worked out at 86%.

In the case of dextran, the Action entry with ICM-forming enzyme [2] is on record as “−”. The same measure, in the same setting: then `OC[C@H]1O[C@H](OC[C@H]2OC(O)[C@H](O)[C@@H](O)[C@@H]2O)[C@H](O)[C@@H](O)[C@@H]1O` (stereo partly drawn) [Isomaltose, isomaltose], with “−”. On to `OC[C@H]1O[C@H](O[C@H]2C(O)O[C@H](CO)[C@@H](O)[C@@H]2O)[C@H](O)[C@@H](O)[C@@H]1O` (stereo partly drawn) [Kojibiose, kojibiose], for which, in the data set on ICM-forming enzyme [2], the Action entry was “−”. The same measure, in the same setting: then `OC[C@H]1O[C@H](O[C@H]2O[C@H](CO)[C@@H](O)[C@H](O)[C@H]2O)[C@H](O)[C@@H](O)[C@@H]1O` [Trehalose, trehalose], with “−”. For the molecule `OC[C@H]1O[C@H](O[C@H]2[C@H](O)[C@@H](O)C(O)O[C@@H]2CO)[C@H](O)[C@@H](O)[C@@H]1O` (mixture of isomers) [Maltose, maltose], the Action result with ICM-forming enzyme [2] is on record as “−”. For the molecule `[Cl-].[Cl-].[Zn+2]` [ZnCl2], the Relative activity with ICM-forming enzyme [1] (1 mM metal salt, None = 100) came to 113%.

As to `OC[C@H]1O[C@H](O[C@H]2[C@H](O)[C@@H](CO)OC(O)[C@@H]2O)[C@H](O)[C@@H](O)[C@@H]1O` (stereo partly drawn) [Nigerose, nigerose], the Action result in the data set with ICM-forming enzyme [2] was “−”. For the molecule `[Cl][Al]([Cl])[Cl]` [AlCl3], the Relative activity with ICM-forming enzyme [1] (1 mM metal salt, None = 100) was 106%. On to soluble starch, for which, in the data set with ICM-forming enzyme [2], the Action entry is on record as “++”. On to `[Cl][Mn][Cl]` [MnCl2], for which, in the data set on ICM-forming enzyme [1] (1 mM metal salt, None = 100), the Relative activity is 108%. Consider `[Cl-].[Cl-].[Sr+2]` [SrCl2], for which the Relative activity with ICM-forming enzyme [1] (1 mM metal salt, None = 100) stood at 100%. Still for that read-out and setting: then `[Cl-].[Cl-].[Mg+2]` [MgCl2], with 110%.

B1: ICM-forming enzyme: enzyme from Bacillus circulans AM7 (FERM BP-10111) forming ICM from α-1,4 glucans; amino acid sequence SEQ ID NO:2 (protein)
chain: ASIGTVTENDTIYQIMVDRFNDGDSSNNATGAAIRYGENSEEDFRYMKGGDWQGVIDKLPYIHNMGYTAIWISPVAEPQMTNRENNGTGKNTAYHGYNVKDPNKANPYFGTKEKLKELVDSAHALGIKVIIDVVPNHIGDYMLGTQAFYDIPSLQPAAPFNNPAWYHHNGDINWSLADGRYDQWAQDYLENHDLGGLDDIDFDVPAAKQAIFSSIKGWFDYTGADGARVDAAKLMKPTDIGELQNLLGVNTFGENFDGNAEFVSRWVGTNKEWGMLDFPLFFSVLNSFAYGQSFDANIKGTLAQDSYYGGNANHMVTFIDNHDRNRFLTEAGGSVEKLQNALSFIFTVRGTPVVFQGTEQNKGNGNGQIMTGGIADTWNRWSMVKRDANGNVLENYFNENASTFKHVAKLNEIRKNNPALRTGTQREMWSAQNLYAFSRRIDTGTNVGQEVISAFSNASGGSQTVTLPLRAESTLTAGTVLVNQLNPSDTVTVQAGGVTGKQITVTLGANSAKIYAKTQPVTDTQAPSVPGNVTATVQNASSALVSWSASTDNVGVTGYEIYRNGVKIGTSATTSFTDNGLVGSTNYSYTVKAYDAAMNLSAFSAAALIVTPAGNSVTIYYKQGYTNPYIHYRPVGGTWTTSPGVAIPAAEVAGYNKITINIGAATQLEACFNNGSGIWDSNGGSNYLFGTGTWTYTPTGNIQAGGPVTPTASPTATPTVAPTATPTVTPTPTPTATPTVAPTATPTVAPTATPVPTATPAGNTATIYYKNTAFSNSYIHYKLDGATTWTTSPGVPMQASTFSGYKSITIPLGTATGLTAAFNNGSGTWDSNGGNNYHFGTGSSSLVGGSLTTGEPQADSVTFRVSVPGSTPANAPVYLTGSFNSWNAADTAYLLTRGSDGVYSVTLNLPAGTAVTYKLTRGSWATVETTSSGADITNRTLTPAGGAQTVTISVQRWKDQ
modifications: Bacillus circulans
Take B1: the “Optimum pH” value in data set [4] (setting [5]) and in data set [4] (setting [6]) was 4.5 to 8.0 each time. Also, the Optimum temperature in data set [4] (setting [5]) and in data set [4] (setting [6]) was 50 to 55 °C each time.
